In US10874646B2, “Epothilone analogs, methods of synthesis, methods of treatment, and drug conjugates thereof” (WILLIAM MARSH RICE UNIVERSITY, priority 2015, dated 2020):
Where two headings read alike, the source gives them in different places.

Key:
RPMI-8226 = experiment: NCI-60 human cancer cell line panel, five dose screen; type: cell-based; conditions: NCI-60 five dose screen
Excerpt: (§1) Biological evaluation. The synthesized epothilone analogues were submitted to the NCI for testing against the NCI-60 human cancer cell line panel (Shoemaker, 2006).

PC-3 = experiment: as above; type: cell-based; conditions: NCI-60 five dose screen
Excerpt: as §1

KM12 = experiment: as above; type: cell-based; conditions: NCI-60 five dose screen
Excerpt: as §1

HT29 = experiment: as above; type: cell-based; conditions: HT-29, NCI-60 five dose screen
Excerpt: as §1

COLO 205 = experiment: as above; type: cell-based; conditions: NCI-60 five dose screen
Excerpt: as §1

MOLT-4 = experiment: as above; type: cell-based; conditions: NCI-60 five dose screen
Excerpt: as §1

SF-539 = experiment: as above; type: cell-based; conditions: NCI-60 five dose screen
Excerpt: as §1

MDA-MB-435 = experiment: as above; type: cell-based; conditions: NCI-60 five dose screen
Excerpt: as §1

RXF 393 = experiment: as above; type: cell-based; conditions: NCI-60 five dose screen
Excerpt: as §1

MCF7 = experiment: as above; type: cell-based; conditions: NCI-60 five dose screen
Excerpt: as §1

NCI-H460 = experiment: as above; type: cell-based; conditions: NCI-60 five dose screen
Excerpt: as §1

HS 578T = experiment: as above; type: cell-based; conditions: NCI-60 five dose screen
Excerpt: as §1

SR = experiment: as above; type: cell-based; conditions: NCI-60 five dose screen
Excerpt: as §1

K-562 = experiment: as above; type: cell-based; conditions: K562, NCI-60 five dose screen
Excerpt: as §1

MDA-MB-468 = experiment: as above; type: cell-based; conditions: NCI-60 five dose screen
Excerpt: as §1

A498 = experiment: as above; type: cell-based; conditions: NCI-60 five dose screen
Excerpt: as §1

U251 = experiment: as above; type: cell-based; conditions: U-251, NCI-60 five dose screen
Excerpt: as §1

OVCAR-3 = experiment: as above; type: cell-based; conditions: NCI-60 five dose screen
Excerpt: as §1

NCI-H23 = experiment: as above; type: cell-based; conditions: NCI-60 five dose screen
Excerpt: as §1

SK-MEL-5 = experiment: as above; type: cell-based; conditions: NCI-60 five dose screen
Excerpt: as §1

HCT-15 = experiment: as above; type: cell-based; conditions: NCI-60 five dose screen
Excerpt: as §1

CCRF-CEM = experiment: as above; type: cell-based; conditions: NCI-60 five dose screen
Excerpt: as §1

SNB-75 = experiment: as above; type: cell-based; conditions: NCI-60 five dose screen
Excerpt: as §1

SW-620 = experiment: as above; type: cell-based; conditions: NCI-60 five dose screen
Excerpt: as §1

LOX IMVI = experiment: as above; type: cell-based; conditions: NCI-60 five dose screen
Excerpt: as §1

A549/ATCC = experiment: as above; type: cell-based; conditions: NCI-60 five dose screen
Excerpt: as §1

HCT-116 = experiment: as above; type: cell-based; conditions: NCI-60 five dose screen
Excerpt: as §1

HOP-92 = experiment: as above; type: cell-based; conditions: NCI-60 five dose screen
Excerpt: as §1

HL-60(TB) = experiment: as above; type: cell-based; conditions: NCI-60 five dose screen
Excerpt: as §1

M14 = experiment: as above; type: cell-based; conditions: NCI-60 five dose screen
Excerpt: as §1

tubulin = experiment: Induction/enhancement of tubulin assembly (Lin, et al., 1996); type: biochemical; conditions: 10 μM tubulin, 0.4M monosodium glutamate, 30 min at room temperature; Table 2; read-out: induction of tubulin assembly (EC50, μM ± SD)
OVCAR-8 = experiment: Cytotoxicity, standard NCI assay with sulforhodamine B, 96 h; conditions: Homo sapiens, OVCAR-8, 96 h, read-out: cytotoxicity (GI50, nM ± SD) OVCAR-8
MCF-7 = experiment: as above; conditions: Homo sapiens, MCF7, 96 h, read-out: cytotoxicity (GI50, nM ± SD) MCF-7
[1] = tested on: NCI-60 human cancer cell line panel; experiment: NCI-60 initial one dose test; type: cell-based; conditions: 10 μM
Excerpt: as §1

SMILES	GI50 (RPMI-8226) [nM]	GI50 (PC-3) [nM]	GI50 (KM12) [nM]	GI50 (HT29) [nM]	GI50 (COLO 205) [nM]	GI50 (MOLT-4) [nM]	GI50 (SF-539) [nM]	GI50 (MDA-MB-435) [nM]	GI50 (RXF 393) [nM]	GI50 (MCF7) [nM]	GI50 (NCI-H460) [nM]	GI50 (HS 578T) [nM]	GI50 (SR) [nM]	GI50 (K-562) [nM]	GI50 (MDA-MB-468) [nM]	GI50 (A498) [nM]	GI50 (U251) [nM]	EC50 (tubulin) [µM]	GI50 (OVCAR-8) [nM]	GI50 (MCF-7) [nM]	other results
C/C(=C\c1ccn(-c2ccc(N)cc2F)n1)[C@@H]1C[C@@H]2O[C@]2(C)CCC[C@H](C)[C@H](O)[C@@H](C)C(=O)C(C)(C)[C@@H](O)CC(=O)O1 [Compound 14]	19.6	25.8	17.7	18.4	18.2	28.3	26.2	8.35	30.6	14	20.8	37.2	29.2	20.7	20.9	80.2	36.2	19 ± 1	38 ± 10	14 ± 2	GI50 (OVCAR-3): 17.6 nM; GI50 (NCI-H23): 24.2 nM; GI50 (SK-MEL-5): 18 nM; GI50 (HCT-15): 22.6 nM; GI50 (CCRF-CEM): 13.6 nM; GI50 (SNB-75): 11.7 nM; GI50 (SW-620): 23.6 nM; GI50 (LOX IMVI): 23.1 nM; GI50 (A549/ATCC): 37.6 nM; GI50 (HCT-116): 17.1 nM; GI50 (HOP-92; dash defined by footnote e, read-out: GI50 (symbol)): > 100 nM; GI50 (HL-60(TB)): 14.1 nM; GI50 (M14): 18.7 nM
C/C(=C\c1cc(C(F)(F)F)nn1CCNC(=O)OC(C)(C)C)[C@@H]1C[C@@H]2O[C@]2(C)CCC[C@H](C)[C@H](O)[C@@H](C)C(=O)C(C)(C)[C@@H](O)CC(=O)O1 [Compound 6]																		> 40	1200	4400	activity in initial one dose test [1]: did not exhibit significant activity
C/C(=C\c1ccn(-c2ccc(N)c(F)c2)n1)[C@@H]1C[C@@H]2O[C@]2(C)CCC[C@H](C)[C@H](O)[C@@H](C)C(=O)C(C)(C)[C@@H](O)CC(=O)O1 [Compound 12]	< 5	9.75	< 5	< 5	< 5	< 5	9.41	< 5	9.39	< 5	< 5	5.51	< 5	< 5	7.22	< 5	< 5	7.8 ± 1	1.8 ± 0.4	2.5	GI50 (OVCAR-3): < 5 nM; GI50 (NCI-H23): 5.72 nM; GI50 (SK-MEL-5): < 5 nM; GI50 (HCT-15): < 5 nM; GI50 (CCRF-CEM): 6.09 nM; GI50 (SNB-75): < 5 nM; GI50 (SW-620): < 5 nM; GI50 (LOX IMVI): < 5 nM; GI50 (A549/ATCC): 6.05 nM; GI50 (HCT-116): < 5 nM; GI50 (HOP-92; read-out: GI50): < 5 nM; GI50 (HL-60(TB)): < 5 nM; GI50 (M14): < 5 nM
C/C(=C\c1ccn(-c2ccc(N)cc2)n1)[C@@H]1C[C@@H]2O[C@]2(C)CCC[C@H](C)[C@H](O)[C@@H](C)C(=O)C(C)(C)[C@@H](O)CC(=O)O1 [Compound 8]	21.3	30.4	19.2	19.6	18.6	38.9	19	8.09	38.4	15.2	20.5	44	30.3	24.7	39.2	102	35.6	15 ± 4	38 ± 10	10	GI50 (OVCAR-3): 18.1 nM; GI50 (NCI-H23): 25.2 nM; GI50 (SK-MEL-5): 20 nM; GI50 (HCT-15): 26.7 nM; GI50 (CCRF-CEM): 34.1 nM; GI50 (SNB-75): 11.4 nM; GI50 (SW-620): 25 nM; GI50 (LOX IMVI): 23.6 nM; GI50 (A549/ATCC): 36.9 nM; GI50 (HCT-116): 18.7 nM; GI50 (HOP-92; read-out: GI50): 146 nM; GI50 (HL-60(TB)): 15.8 nM; GI50 (M14): 19.2 nM
C/C(=C\c1ccn(-c2ccccc2N)n1)[C@@H]1C[C@@H]2O[C@]2(C)CCC[C@H](C)[C@H](O)[C@@H](C)C(=O)C(C)(C)[C@@H](O)CC(=O)O1 [Compound 10]	17.8	34.3	20.6	18.8	20.4	27.6	15.8	9.56	39.6	17.7	20.3	31.6	27.4	24.4	23.4	18.8	30.8	8 ± 1	23 ± 10	5.5	GI50 (OVCAR-3): 18.8 nM; GI50 (NCI-H23): 35.8 nM; GI50 (SK-MEL-5): 21.9 nM; GI50 (HCT-15): 32.5 nM; GI50 (CCRF-CEM): 22.6 nM; GI50 (SNB-75): 16.4 nM; GI50 (SW-620): 24.5 nM; GI50 (LOX IMVI): 31.3 nM; GI50 (A549/ATCC): 34.5 nM; GI50 (HCT-116): 18.3 nM; GI50 (HOP-92; read-out: GI50): 80.7 nM; GI50 (HL-60(TB)): 17.2 nM; GI50 (M14): 18 nM
C/C(=C\c1ccn(-c2ccc(N)c(C(F)(F)F)c2)n1)[C@@H]1C[C@@H]2O[C@]2(C)CCC[C@H](C)[C@H](O)[C@@H](C)C(=O)C(C)(C)[C@@H](O)CC(=O)O1 [Compound 11]	9.98	12.7	9.16	5.74	8.48	14.2	9.55	< 3.25	14	< 3.25	8.73	7.1	7.29	10.2	10.6	11.3	14.6	2.5 ± 0.5	2.5 ± 0.4	3 ± 1	GI50 (OVCAR-3): 10.2 nM; GI50 (NCI-H23): 18.3 nM; GI50 (SK-MEL-5): 10.1 nM; GI50 (HCT-15): 11 nM; GI50 (CCRF-CEM): 12.3 nM; GI50 (SNB-75): 5.75 nM; GI50 (SW-620): 6.23 nM; GI50 (LOX IMVI): 10.3 nM; GI50 (A549/ATCC): 13.4 nM; GI50 (HCT-116): 4.82 nM; GI50 (HOP-92; read-out: GI50): 16.1 nM; GI50 (HL-60(TB)): 7.36 nM; GI50 (M14): 4.88 nM
